This note sets out measurements from patent publication US20140005165A1, “SUBSTITUTED 3-AZABICYCLO[3.1.0]HEXANE DERIVATIVES USEFUL AS CCR2 ANTAGONISTS” (priority 2011, published 2014).

In general, IC50 refers to the concentration needed to halve the response being measured. High values mean weaker potency in that assay, low ones greater potency in that assay.

T1 sequence (P41597 whole entry): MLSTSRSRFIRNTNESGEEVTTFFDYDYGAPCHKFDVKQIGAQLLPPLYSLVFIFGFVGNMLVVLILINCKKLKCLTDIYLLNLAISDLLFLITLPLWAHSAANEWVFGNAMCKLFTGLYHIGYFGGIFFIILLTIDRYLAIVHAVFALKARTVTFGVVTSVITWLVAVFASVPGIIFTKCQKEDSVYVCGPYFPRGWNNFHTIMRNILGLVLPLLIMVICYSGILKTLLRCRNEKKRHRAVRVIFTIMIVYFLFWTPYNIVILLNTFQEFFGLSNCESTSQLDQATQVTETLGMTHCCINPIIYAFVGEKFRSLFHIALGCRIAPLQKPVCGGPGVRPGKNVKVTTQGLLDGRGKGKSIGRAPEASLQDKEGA

One experiment concerns the target T1, human CCR2 (Homo sapiens, UniProt P41597).
T1 construct: expressed in transfected cells; host or cells: Ba/F3 cells (membrane preparation)
Nature of the experiment: CCR2 Membrane Binding Assay (SPA radio-ligand binding, 125I-rhMCP-1). The conditions noted are these: membranes from Ba/F3 cells transfected with human CCR2; 0.03 nM 125I-rhMCP-1; 4 h room temperature. The method, then:
The radio-ligand binding assay was done using scintillation proximity assay (SPA) technology. Briefly, membranes (1 μg per assay point) from Ba/F3 cells transfected with human CCR2, and wheat germ agglutinin-coated SPA beads (80 μg per point; Amersham, Arlington Heights, Ill.), were pre-incubated for 30 min at room temperature in CCR2 buffer (50 mM HEPES (pH=7.4), 10 mM MgCl2, 10 mM NaCl, 1 mM CaCL2, 0.1% BSA, 10 μg/ml Saponin). At this point pre-bound SPA bead, membrane complex was incubated at room temperature for 4 h with varying concentrations of punitive CCR2 antagonists (in 1% DMSO, final) and 0.03 nM ^125I-rhMCP-1 in CCR2Buffer (S.A. 2200 Ci/mmol, PerkinElmer Life and Analytical Science, Boston, Mass.; NEX332). Binding competition was measured using a 1450 Microbeta Trilux counter (Wallac, Gaithersburg, Md.). Binding constants (IC50 and slope) were calculated using GraphPad Prism software (GraphPad Software, Inc., La Jolla Calif.).
Consider `O=C(CNC(=O)[C@H]1[C@@H]2CN([C@H]3CC[C@@H](c4ccccn4)CC3)C[C@@H]21)Nc1cccc(C(F)(F)F)c1` [Compound 81], for which the concentration for half-maximal inhibition (IC50) is 1.8 nM.
Same read-out and setting: to `O=C(CNC(=O)[C@H]1[C@@H]2CN([C@H]3CC[C@@H](c4cccnc4)CC3)C[C@@H]21)Nc1cccc(C(F)(F)F)c1` [Compound 82] belongs 4 nM; to `O=C(CNC(=O)[C@H]1[C@@H]2CN([C@H]3CC[C@@H](c4ccncc4)CC3)C[C@@H]21)Nc1cccc(C(F)(F)F)c1` [Compound 83], 11 nM.
Still for that read-out and setting: to `O=C(CNC(=O)[C@H]1[C@@H]2CN([C@H]3CC[C@@H](c4ccccc4)OC3)C[C@@H]21)Nc1cccc(C(F)(F)F)c1` [Compound 89] belongs 3.6 nM.
The compound `O=C(CNC(=O)[C@H]1[C@@H]2CN([C@H]3CC[C@@H](c4ncccn4)CC3)C[C@@H]21)Nc1cccc(C(F)(F)F)c1` [Compound 90] came in with a half-maximal inhibitory concentration (IC50) of 7.6 nM.
In turn, `Cn1cc([C@H]2CC[C@@H](N3C[C@@H]4[C@H](C3)[C@H]4C(=O)NCC(=O)Nc3cccc(C(F)(F)F)c3)CC2)cn1` [Compound 94] registered an IC50 of 13.6 nM. This IC50 is about 1.8-fold higher than that of the compound before.
The same measure, in the same setting: next, `O=C(CNC(=O)[C@H]1[C@@H]2CN([C@H]3CC[C@@H](c4ccsc4)CC3)C[C@@H]21)Nc1cccc(C(F)(F)F)c1` [Compound 97]: 3.7 nM.
On the same count and under the same terms, next, `O=C(CNC(=O)[C@H]1[C@@H]2CN([C@H]3CC[C@@H](c4ccc(O)cc4)CC3)C[C@@H]21)Nc1cccc(C(F)(F)F)c1` [Compound 114]: 3.1 nM.

Still in this experiment, the particulars now being: membranes from Ba/F3 cells transfected with human CCR2; 0.03 nM 125I-rhMCP-1; class symbols.
The compound `O=C(CNC(=O)[C@H]1[C@@H]2CN(C3CC(c4ccccc4)C3)C[C@@H]21)Nc1cccc(C(F)(F)F)c1` (some centres unmarked) [Compound 49] came in with an IC50 of 51 to 200 nM.
In the case of `CC(CCc1ccccc1)N1C[C@@H]2[C@H](C1)[C@H]2C(=O)NCC(=O)Nc1cccc(C(F)(F)F)c1` (some centres unmarked) [Compound 50], the “IC50 (nM)” value is “D (compounds with IC50 values between 701 nM and 110 nM are designated as D class compounds)”.
As for `CC(C)(C)C1CCC(N2C[C@@H]3[C@H](C2)[C@H]3C(=O)NCC(=O)Nc2cccc(C(F)(F)F)c2)CC1` (some centres unmarked) [Compound 54], the “IC50 (nM)” value is “D (compounds with IC50 values between 701 nM and 110 nM are designated as D class compounds)”.
`CC(=O)NC1CCC(N2C[C@@H]3[C@H](C2)[C@H]3C(=O)NCC(=O)Nc2cccc(C(F)(F)F)c2)CC1` (some centres unmarked) [Compound 55] returned a half-inhibitory concentration (IC50) of 201 to 700 nM.
`COC(=O)[C@H]1CC[C@@H](N2C[C@@H]3[C@H](C2)[C@H]3C(=O)NCC(=O)Nc2cccc(C(F)(F)F)c2)CC1` [Compound 57]: the half-maximal inhibitory concentration (IC50) was less than 50 nM.
The same measure, in the same setting: next, `COC(=O)[C@H]1CC[C@H](N2C[C@@H]3[C@H](C2)[C@H]3C(=O)NCC(=O)Nc2cccc(C(F)(F)F)c2)CC1` [Compound 58]: 201 to 700 nM; `O=C([C@H]1[C@@H]2CN([C@H]3CC[C@@H](c4ccccc4)CC3)C[C@@H]21)N1CC(c2cccc(C(F)(F)F)c2)C1` [Compound 59]: 201 to 700 nM.
The same measure, in the same setting: to `O=C([C@H]1[C@@H]2CN([C@H]3CC[C@@H](c4ccccc4)CC3)C[C@@H]21)N1CCc2ncc(C(F)(F)F)cc2C1` [Compound 61] belongs 201 to 700 nM.
On the same count and under the same terms, to `O=C(NCCCc1cccc(C(F)(F)F)c1)[C@H]1[C@@H]2CN([C@H]3CC[C@@H](c4ccccc4)CC3)C[C@@H]21` [Compound 62] belongs 51 to 200 nM.
As for `O=C(CNC(=O)[C@H]1[C@@H]2CN(C3CC[C@H](c4ccccc4)C3)C[C@@H]21)Nc1cccc(C(F)(F)F)c1` (some centres unmarked) [Compound 64], the IC50 lay in the range of 51 to 200 nM.
The same measure, in the same setting: next, `O=C(CNC(=O)[C@H]1[C@@H]2CN(C3CC[C@@H](c4ccccc4)C3)C[C@@H]21)Nc1cccc(C(F)(F)F)c1` (some centres unmarked) [Compound 65]: 201 to 700 nM; `O=C(NCCc1cc(F)cc(C(F)(F)F)c1)[C@H]1[C@@H]2CN([C@H]3CC[C@@H](c4ccccc4)CC3)C[C@@H]21` [Compound 67]: 51 to 200 nM.
On the same count and under the same terms, to `O=C(NC1Cc2ccc(Br)cc2C1)[C@H]1[C@@H]2CN([C@H]3CC[C@@H](c4ccccc4)CC3)C[C@@H]21` (some centres unmarked) [Compound 68] belongs 51 to 200 nM.
`O=C([C@H]1[C@@H]2CN([C@H]3CC[C@@H](c4ccccc4)CC3)C[C@@H]21)N1CCC(c2cccc(C(F)(F)F)c2)C1` (some centres unmarked) [Compound 70] gave an IC50 of less than 50 nM.
The same measure, in the same setting: to `O=C([C@H]1[C@@H]2CN([C@H]3CC[C@@H](c4ccccc4)CC3)C[C@@H]21)N1CCC(c2cccc(C(F)(F)F)c2)C1` (some centres unmarked) [Compound 71] belongs less than 50 nM.
The same measure, in the same setting: to `O=C([C@H]1[C@@H]2CN([C@H]3CC[C@@H](c4ccccc4)CC3)C[C@@H]21)N1CCC(c2ccc(C(F)(F)F)cc2)C1` (some centres unmarked) [Compound 73] belongs 51 to 200 nM; to `O=C(NCC1(c2cccc(C(F)(F)F)c2)CC1)[C@H]1[C@@H]2CN([C@H]3CC[C@@H](c4ccccc4)CC3)C[C@@H]21` [Compound 74], 201 to 700 nM.
Take `O=C([C@H]1[C@@H]2CN([C@H]3CC[C@@H](c4ccccc4)CC3)C[C@@H]21)N1CC(Oc2ccc(C(F)(F)F)cc2)C1` [Compound 76]: the “IC50 (nM)” value is “D (compounds with IC50 values between 701 nM and 110 nM are designated as D class compounds)”.
In the case of `O=C([C@H]1[C@@H]2CN([C@H]3CC[C@@H](c4ccccc4)CC3)C[C@@H]21)N1CC(Oc2ccc(Cl)c(Cl)c2)C1` [Compound 77], the concentration for half-maximal inhibition (IC50) was 51 to 200 nM.
`O=C(CNC(=O)[C@H]1[C@@H]2CN(C3CC3)C[C@@H]21)Nc1cccc(C(F)(F)F)c1` [Compound 78] gave a half-inhibitory concentration (IC50) of 201 to 700 nM.
Take `O=C(CNC(=O)[C@H]1[C@@H]2CN([C@H]3CC[C@H](c4ccccc4)CC3)C[C@@H]21)Nc1cccc(C(F)(F)F)c1` [Compound 79]: the “IC50 (nM)” value was “D (compounds with IC50 values between 701 nM and 110 nM are designated as D class compounds)”.
On the same count and under the same terms, next, `O=C(CNC(=O)[C@H]1[C@@H]2CN(C3CCCC(c4ccccc4)C3)C[C@@H]21)Nc1cccc(C(F)(F)F)c1` (some centres unmarked) [Compound 80]: “D (compounds with IC50 values between 701 nM and 110 nM are designated as D class compounds)”.
`O=C(CNC(=O)[C@H]1[C@@H]2CN([C@H]3CC[C@H](c4ccccn4)CC3)C[C@@H]21)Nc1cccc(C(F)(F)F)c1` [Compound 84] yielded a half-maximal inhibitory concentration (IC50) of 201 to 700 nM.
For the compound `O=C(CNC(=O)[C@H]1[C@@H]2CN([C@H]3CC[C@H](c4ccncc4)CC3)C[C@@H]21)Nc1cccc(C(F)(F)F)c1` [Compound 85], the IC50 lay within 201 to 700 nM.
The compound `O=C(CNC(=O)[C@H]1[C@@H]2CN([C@H]3CC[C@@H](c4cncnc4)CC3)C[C@@H]21)Nc1cccc(C(F)(F)F)c1` [Compound 91] yielded a half-maximal inhibitory concentration (IC50) of less than 50 nM.
Regarding `CC(C)N1C[C@@H]2[C@H](C1)[C@H]2C(=O)NCC(=O)Nc1cccc(C(F)(F)F)c1` [Compound 93], the IC50 fell in the range of 51 to 200 nM.
Still for that read-out and setting: next, `Cn1ccnc1C1CCC(N2C[C@@H]3[C@H](C2)[C@H]3C(=O)NCC(=O)Nc2cccc(C(F)(F)F)c2)CC1` (some centres unmarked) [Compound 95]: 51 to 200 nM.
For the compound `Cn1cc([C@H]2CC[C@H](N3C[C@@H]4[C@H](C3)[C@H]4C(=O)NCC(=O)Nc3cccc(C(F)(F)F)c3)CC2)cn1` [Compound 96], the “IC50 (nM)” value was “D (compounds with IC50 values between 701 nM and 110 nM are designated as D class compounds)”.
On to `O=C(CNC(=O)[C@H]1[C@@H]2CN([C@H]3CC[C@@H](c4cccs4)CC3)C[C@@H]21)Nc1cccc(C(F)(F)F)c1` [Compound 98], for which the IC50 is less than 50 nM.
On the same count and under the same terms, next, `O=C(CNC(=O)[C@H]1[C@@H]2CN([C@H]3CC[C@H](c4ccsc4)CC3)C[C@@H]21)Nc1cccc(C(F)(F)F)c1` [Compound 99]: 51 to 200 nM; `O=C(CNC(=O)[C@H]1[C@@H]2CN([C@H]3CC[C@H](c4cccs4)CC3)C[C@@H]21)Nc1cccc(C(F)(F)F)c1` [Compound 100]: 201 to 700 nM.
With `O=C([C@H]1[C@@H]2CN([C@H]3CC[C@@H](c4ccccc4)CC3)C[C@@H]21)N1CCC(c2cccc(C(F)(F)F)c2)CC1` [Compound 106], the “IC50 (nM)” value was “D (compounds with IC50 values between 701 nM and 110 nM are designated as D class compounds)”.
`O=C([C@H]1[C@@H]2CN([C@H]3CC[C@@H](c4ccccc4)CC3)C[C@@H]21)N1CCN(c2cccc(C(F)(F)F)c2)CC1` [Compound 108] displayed a concentration for half-maximal inhibition (IC50) of 201 to 700 nM.
On the same count and under the same terms, to `O=C(CNC(=O)[C@H]1[C@@H]2CN(C3CCC3)C[C@@H]21)Nc1cccc(C(F)(F)F)c1` [Compound 110] belongs 201 to 700 nM.
The compound `O=C([C@H]1[C@@H]2CN([C@H]3CC[C@@H](c4ccccc4)CC3)C[C@@H]21)N1CC[C@H](Nc2nccc(C(F)(F)F)n2)C1` [Compound 111] gave a concentration for half-maximal inhibition (IC50) of 51 to 200 nM.
Still for that read-out and setting: next, `O=C(N[C@@H]1CCN(c2nccc(C(F)(F)F)n2)C1)[C@H]1[C@@H]2CN([C@H]3CC[C@@H](c4ccccc4)CC3)C[C@@H]21` [Compound 112]: 201 to 700 nM.
On to `O=C([C@H]1[C@@H]2CN([C@H]3CC[C@@H](c4ccccc4)CC3)C[C@@H]21)N1CCC(Nc2ncc(C(F)(F)F)cn2)C1` (some centres unmarked) [Compound 113], for which the half-maximal inhibitory concentration (IC50) lay in the range of 201 to 700 nM.
`O=C(CNC(=O)[C@H]1[C@@H]2CN([C@H]3CC[C@H](c4ccc(O)cc4)CC3)C[C@@H]21)Nc1cccc(C(F)(F)F)c1` [Compound 115] yielded an IC50 of less than 50 nM.
The same measure, in the same setting: next, `O=C(CNC(=O)[C@H]1[C@@H]2CN(C3CC(COCc4ccccc4)C3)C[C@@H]21)Nc1cccc(C(F)(F)F)c1` (some centres unmarked) [Compound 116]: 201 to 700 nM.
